Results taken from patent EP4603105A1, “PHARMACEUTICAL COMPOSITION CONTAINING CYCLIC COMPOUND HAVING SELECTIVE KRAS INHIBITORY EFFECT AGAINST HRAS AND NRAS” (CHUGAI SEIYAKU KABUSHIKI KAISHA, priority 2022, dated 2024).
*1 amine or outer side, *2 acyl side, *3 side chain or, on linkers, in order; H or OH if unused. Where a SMILES comes first, the peptide text is derived from it. Bridges are numbered along the chain shown (N, C = ends). [ ]: non-standard residue; d: D form. The star is where a group is joined. hPhe(3-Cl-4-CF3) = N[C@@H](CCc1ccc(C(F)(F)F)c(Cl)c1)C(=O)O; X26 = CCCN([C@@H](Cc1ccc(F)cc1)C(=O)[*:2])[*:1]; X15 = CCCN([C@@H](Cc1ccccc1)C(=O)[*:2])[*:1]; NEtPhe(4-F) = CCN[C@@H](Cc1ccc(F)cc1)C(=O)O; NMePhe(4-F) = CN[C@@H](Cc1ccc(F)cc1)C(=O)O; NMeGly(cPent) = CN[C@H](C(=O)O)C1CCCC1; NEtPhe = CCN[C@@H](Cc1ccccc1)C(=O)O; NMeD = CN[C@@H](CC(=O)O)C(=O)O; NMeL = CN[C@@H](CC(C)C)C(=O)O; Morpholide = C1CN(*)CCO1; NMeA = CN[C@@H](C)C(=O)O; Ac5c = NC1(C(=O)O)CCCC1; Aze = O=C(O)[C@@H]1CCN1; Sar = CNCC(=O)O

Columns and labels:
[1] = test system: human lung cancer strain NCI-H441; type: cell-based
Method in brief: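 Signal came from […] measured per well once the reagent was added. Beforehand, cells were cultured at 37°C and 5% carbon dioxide on a compound series serially diluted in dimethyl sulfoxide.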

[2] = molecular target: GDP-bound NRAS wild-type protein (Homo sapiens, UniProt P01111); test: Binding to NRAS by surface plasmon resonance (SPR), KD and KD ratio to KRAS; conditions: ratio of KD for GDP-bound NRAS wild-type protein to KD for KRAS
Method in brief: (§1)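 Measured at 30°C: SPR with GDP-loaded, E. coli-expressed biotin-Avi RAS captured (~100–300 RU), ascending 75 s compound injections, HBS pH 7.4 with GDP, MgCl2, 4% DMSO. KD from 1:1 fit.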

HRAS wild-type protein = HRAS wild-type protein (Homo sapiens, UniProt P01112); test: Binding to HRAS by surface plasmon resonance (SPR), KD and KD ratio to KRAS; conditions: ratio of KD for HRAS wild-type protein to KD for KRAS
Method in brief: as §1

HRAS wild-type protein, sequence (P01112 whole entry): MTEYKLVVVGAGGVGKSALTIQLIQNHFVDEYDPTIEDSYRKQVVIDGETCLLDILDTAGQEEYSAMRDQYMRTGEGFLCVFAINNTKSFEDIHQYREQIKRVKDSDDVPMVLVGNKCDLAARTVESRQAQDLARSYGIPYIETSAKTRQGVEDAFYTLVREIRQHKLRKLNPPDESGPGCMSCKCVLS
GDP-bound NRAS wild-type protein, sequence (P01111 whole entry): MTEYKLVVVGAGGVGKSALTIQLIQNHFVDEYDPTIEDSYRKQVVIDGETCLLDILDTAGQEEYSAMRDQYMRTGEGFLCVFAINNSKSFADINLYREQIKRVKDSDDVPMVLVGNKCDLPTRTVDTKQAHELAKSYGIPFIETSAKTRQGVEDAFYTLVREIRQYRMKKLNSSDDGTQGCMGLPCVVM

CC[C@H](C)[C@@H]1NC(=O)[C@H](CC(C)C)N(C)C(=O)C[C@@H](C(=O)N2CCOCC2)N(C)C(=O)[C@H](C2CCCC2)N(C)C(=O)C2(CCCC2)NC(=O)[C@@H]2CCCN2C(=O)[C@H](CCc2ccc(C(F)(F)F)c(Cl)c2)NC(=O)CN(C)C(=O)[C@H](Cc2ccc(F)cc2)N(C)C(=O)CN(C)C(=O)CN(C)C1=O [PP0212] ([NMeL]I[Sar][Sar][NMePhe(4-F)][Sar][hPhe(3-Cl-4-CF3)]P[Ac5c][NMeGly(cPent)][NMeD]-Morpholide; lactam N-11)
IC50 [1]: 26.6 nM
NRAS /KRAS [2]: C (A compound having a KD ratio of 0.1 or more and less than 3 is denoted as C)
HRAS /KRAS (HRAS wild-type protein): C (A compound having a KD ratio of 0.1 or more and less than 3 is denoted as C)

CC[C@H](C)[C@@H]1NC(=O)[C@H](CC(C)C)N(C)C(=O)C[C@@H](C(=O)N2CCOCC2)N(C)C(=O)[C@H](C2CCCC2)N(C)C(=O)C2(CCCC2)NC(=O)[C@@H]2CCCN2C(=O)[C@H](CCc2ccc(C(F)(F)F)c(Cl)c2)NC(=O)CN(C)C(=O)[C@H](Cc2ccc(F)cc2)N(CC)C(=O)CN(C)C(=O)CN(C)C1=O [PP0213] ([NMeL]I[Sar][Sar][NEtPhe(4-F)][Sar][hPhe(3-Cl-4-CF3)]P[Ac5c][NMeGly(cPent)][NMeD]-Morpholide; lactam N-11)
IC50 [1]: 10.3 nM
NRAS /KRAS [2]: C (A compound having a KD ratio of 0.1 or more and less than 3 is denoted as C)
HRAS /KRAS (HRAS wild-type protein): C (A compound having a KD ratio of 0.1 or more and less than 3 is denoted as C)

CCCN1C(=O)CN(C)C(=O)CN(C)C(=O)[C@H]([C@@H](C)CC)NC(=O)[C@H](CC(C)C)N(C)C(=O)C[C@@H](C(=O)N2CCOCC2)N(C)C(=O)[C@H](C2CCCC2)N(C)C(=O)C2(CCCC2)NC(=O)[C@@H]2CCCN2C(=O)[C@H](CCc2ccc(C(F)(F)F)c(Cl)c2)NC(=O)CN(C)C(=O)[C@@H]1Cc1ccc(F)cc1 [PP0214] ([NMeL]I[Sar][Sar][X26][Sar][hPhe(3-Cl-4-CF3)]P[Ac5c][NMeGly(cPent)][NMeD]-Morpholide; lactam N-11)
IC50 [1]: 5.4 nM
NRAS /KRAS [2]: B (a compound having 3 or more and less than 10 is denoted as B)
HRAS /KRAS (HRAS wild-type protein): C (A compound having a KD ratio of 0.1 or more and less than 3 is denoted as C)

CC[C@H](C)[C@@H]1NC(=O)[C@H](CC(C)C)N(C)C(=O)C[C@@H](C(=O)N2CCOCC2)N(C)C(=O)[C@H](C2CCCC2)N(C)C(=O)C2(CCCC2)NC(=O)[C@@H]2CCCN2C(=O)[C@H](CCc2ccc(C(F)(F)F)c(Cl)c2)NC(=O)CN(C)C(=O)[C@H](Cc2ccccc2)N(CC)C(=O)[C@@H]2CCN2C(=O)[C@H](C)N(C)C1=O [PP0215] ([NMeL]I[NMeA][Aze][NEtPhe][Sar][hPhe(3-Cl-4-CF3)]P[Ac5c][NMeGly(cPent)][NMeD]-Morpholide; lactam N-11)
IC50 [1]: 4.8 nM
NRAS /KRAS [2]: C (A compound having a KD ratio of 0.1 or more and less than 3 is denoted as C)
HRAS /KRAS (HRAS wild-type protein): C (A compound having a KD ratio of 0.1 or more and less than 3 is denoted as C)

CCCN1C(=O)[C@@H]2CCN2C(=O)[C@H](C)N(C)C(=O)[C@H]([C@@H](C)CC)NC(=O)[C@H](CC(C)C)N(C)C(=O)C[C@@H](C(=O)N2CCOCC2)N(C)C(=O)[C@H](C2CCCC2)N(C)C(=O)C2(CCCC2)NC(=O)[C@@H]2CCCN2C(=O)[C@H](CCc2ccc(C(F)(F)F)c(Cl)c2)NC(=O)CN(C)C(=O)[C@@H]1Cc1ccccc1 [PP0216] ([NMeL]I[NMeA][Aze][X15][Sar][hPhe(3-Cl-4-CF3)]P[Ac5c][NMeGly(cPent)][NMeD]-Morpholide; lactam N-11)
IC50 [1]: 3 nM
NRAS /KRAS [2]: C (A compound having a KD ratio of 0.1 or more and less than 3 is denoted as C)
HRAS /KRAS (HRAS wild-type protein): B (a compound having 3 or more and less than 10 is denoted as B)
